Source: BigSolDB 2.1

NC(=O)c1ccc([N+](=O)[O-])cc1
solubility (mole fraction)
Details | 283.15 K | 288.15 K | 293.15 K | 298.15 K | 303.15 K | 308.15 K | 313.15 K | 318.15 K | 323.15 K | 328.15 K
in DMF | 0.037 | 0.0416 | 0.0492 | 0.0576 | 0.0691 | 0.0811 | 0.0945 | 0.109 | 0.123 | 0.139
in DMSO | – | – | 0.0372 | 0.0425 | 0.0504 | 0.0613 | 0.0747 | 0.0888 | 0.103 | 0.117
in NMP | 0.0418 | 0.0472 | 0.0549 | 0.0653 | 0.0775 | 0.0917 | 0.108 | 0.125 | 0.144 | 0.169
in acetonitrile | 0.000628 | 0.000806 | 0.000994 | 0.00126 | 0.00155 | 0.00195 | 0.00232 | 0.0028 | 0.00332 | 0.00396
in ethanol | 0.00157 | 0.00182 | 0.00231 | 0.00287 | 0.00351 | 0.00429 | 0.00513 | 0.00616 | 0.00735 | 0.00882
in ethyl acetate | 0.00203 | 0.00236 | 0.00286 | 0.00376 | 0.00471 | 0.00583 | 0.00706 | 0.0086 | 0.0103 | 0.0122
in ethylene glycol | 0.00356 | 0.00417 | 0.00496 | 0.006 | 0.00719 | 0.00873 | 0.0102 | 0.0119 | 0.0138 | 0.0164
in isobutanol | 0.000751 | 0.000942 | 0.00119 | 0.0015 | 0.00187 | 0.00233 | 0.00286 | 0.00342 | 0.00403 | 0.00467
in isopropanol | 0.00127 | 0.0015 | 0.00185 | 0.0023 | 0.00286 | 0.00341 | 0.00408 | 0.00492 | 0.00579 | 0.00677
in n-butanol | 0.000449 | 0.000554 | 0.000712 | 0.000907 | 0.00116 | 0.00144 | 0.00176 | 0.00213 | 0.00253 | 0.00301
in n-propanol | 0.00096 | 0.00119 | 0.00151 | 0.00189 | 0.00228 | 0.00276 | 0.00327 | 0.00381 | 0.00447 | 0.00533
in water | 0.000322 | 0.000395 | 0.000498 | 0.0006 | 0.000754 | 0.000924 | 0.00112 | 0.00137 | 0.00161 | 0.00186
